# According to patent publication US9149618B2, “Built-in non-verbal instructional device integratable to applicators” (NANOMED SKINCARE, INC., priority 2010, dated 2015):
# Where two headings read alike, the source gives them in different places.
# Assays:
# [1] = In vitro permeation study, Franz-type diffusion cells, porcine ear skin; conditions: for Permeation rates of LC / Cumulative amount of LC: porcine ear skin, FMA; for Cumulative amount of LC: 8 h
# [2] = In vitro permeation study, Franz-type diffusion cells, human cadaver skin; type: in vitro ADME
# Procedure: Samples of full-thickness dermatomed human cadaver skins (≈800 μm) were obtained from the Burns Institute, 304th Clinical Department, The General Hospital of PLA, Trauma Center of Postgraduate Medical College and were free from overt pathology. The skin samples were kept frozen in liquid nitrogen and used within 3 months.
# (§1) The method of the percutaneous absorption study adheres to the Test Guideline 428 of Organization for Economic Cooperation and Development (2004). The experiment was performed with a system employing Franz-type glass diffusion cells. The temperature in the receptor chamber was maintained at physiological temperature of 37.0±0.1° C. with an external, constant temperature circulating water bath.
# Skin samples were treated using FMA delivery system. The insertion force was provided by the applicator. The skins without FMA treatment were used as control. The skin was mounted on a receptor chamber (2.5 ml) with the stratum corneum side facing upward into the donor chamber with effective permeation area of 0.66 cm^2. The receptor and donor chambers were filled with PBS solution, and the receptor fluid was continuously stirred with a magnetic bar at 280 rpm to maintain homogeneity. After 1 h equilibration, the solution in the receptor chamber was replaced with fresh PBS, and 300 μl of LC solution or 300 mg of LC gel was applied on the skin in the donor chamber, which was then covered with a parafilm to avoid any evaporation process. […] The samples were analyzed by HPLC/UV. The results were expressed as the mean±S.D. (n=3-4 independent samples).
# The quantitative determination of LC was performed by HPLC using methanol-190 mM KH2PO4 water (87:13) as mobile phase at a flow rate of 0.6 ml/min, by LC-2010A (Shimadzu, Japan). […] The column eluant was monitored at 225 nm. […]
# The cumulative amount of drug permeated per unit area versus time was plotted. The permeation rates of LC were calculated from the slope of linear portion of the plots. […] Statistically significant differences were determined using the analysis of variance (ANOVA) with P<0.05 as a minimal level of significance.
# [3] = In vitro permeation study, Franz-type diffusion cells, rat skin; type: in vitro ADME
# Text: Male Sprague-Dawley rats (220-250 g) were provided by Beijing Weitong Lihua Experimental Animals Ltd. Co. (Beijing China). Forty-eight hours before the test, rats were anesthetized by ether, and then the abdominal hair of each rat was shaved with an electric hair clipper. At the beginning of in vitro studies, animals were euthanized using carbon dioxide and full-thickness skins were removed. All research protocols adhered to the Guide for the Care and Use of Laboratory Animals (1996).
# as §1
# Skin samples were treated using FMA delivery system. The insertion force was provided by the applicator. The skins without FMA treatment were used as control. The skin was mounted on a receptor chamber (2.5 ml) with the stratum corneum side facing upward into the donor chamber with effective permeation area of 0.66 cm^2. The receptor and donor chambers were filled with PBS solution, and the receptor fluid was continuously stirred with a magnetic bar at 280 rpm to maintain homogeneity. After 1 h equilibration, the solution in the receptor chamber was replaced with fresh PBS, and 300 μl of LC solution or 300 mg of LC gel was applied on the skin in the donor chamber, which was then covered with a parafilm to avoid any evaporation process. The samples of receptor cell were withdrawn through at predetermined time intervals and the receptor phase was immediately refreshed by equal volume of PBS buffer to keep a constant volume. The samples were analyzed by HPLC/UV. The results were expressed as the mean±S.D. (n=3-4 independent samples).
# The quantitative determination of LC was performed by HPLC using methanol-190 mM KH2PO4 water (87:13) as mobile phase at a flow rate of 0.6 ml/min, by LC-2010A (Shimadzu, Japan). The injection volume was 20 μl. The analysis was performed in a YMC-Pack ODS-A C18 column with dimensions of 250 mm×4.6 mm i.d., 5 μm particle size (YMC Inc., USA). The column eluant was monitored at 225 nm. The detection limit is 20 μg ml^−1. The inter- and intra-day variability was less than 5%.
# The cumulative amount of drug permeated per unit area versus time was plotted. The permeation rates of LC were calculated from the slope of linear portion of the plots. Data analysis was carried out with Microsoft Excel, Version 2000. Results were presented as the mean±S.D. (n=3-4 independent samples). Statistically significant differences were determined using the analysis of variance (ANOVA) with P<0.05 as a minimal level of significance.
# [4] = Skin penetration of active agent on applicator pre-treated skin
# [5] = In vivo permeation study: pharmacokinetics and absolute bioavailability of LC in rats; conditions: rat; for bioavailability / AUC(0-inf) / Cmax / Tmax: male, Sprague-Dawley, plasma; for AUC(0-inf): AUC0-∞; for Plasma concentration: intravenous 200 mg/rat
# Text: Male Sprague-Dawley rats (250 g±10 g) were equally divided into four groups (3 for each): group A, B, C and D. Before administration, all rats allowed to acclimatize for one week. One day before administration, rats were fasted overnight but allowed access to water. The hair of abdominal skin was carefully shaved by electric clippers for Group A and B. The rats in group A were pretreated by FMA with an area of 2 cm^2, the group B was untreated as a control. Then hydrogel patch containing LC 750 mg was applied to each rat by an adhesive housing for 6 h. Group C and Group D were control groups of oral and intravenous injection administration of 1 ml LC solution (200 mg/ml). A volume of 0.5 ml blood samples were taken before administration and at predetermined time intervals after LC administration. Plasma samples were immediately separated by centrifugation at 4000×g for 7 mins, and stored at −80° C. until assay.
# Pretreatment method of samples: 120 μl of plasma was deproteinized with 600 μl of 0.6 M perchloric acid. The mixture was shaken for 30 s and allowed to stand in an ice bath for about 15 mins. After centrifuged at 4000×g for 7 mins, 500 μl of supernatant was transferred to a new tube in which 300 μl of 0.5 M K2CO3 was added, the mixture was shaken for 30 s and incubated in an ice-bath for 15 mins. Precipitate of KClO4 was removed by centrifugation at 4000×g for 7 mins, and 200 μl of the supernatant with free LC was separated for the assay.
# Assays: The concentration of free LC in serum was determined by enzymatic assay kit with a limitation detection of 0.8 μg/ml.
# Maximum plasma concentration (Cmax) and the time to reach this peak (Tmax) were directly identified from the pharmacokinetic curves (LC plasma concentration versus time). Area under the plasma concentration-time curve (AUC0→∞) was calculated by using the trapezoidal rule. Absolute bioavailability (A.B.) of LC after oral and FMA administration comparing with intravenous administration was calculated using the following equation:
# [6] = With FMA, CP980 gel patch 750 mg/rat, 6 h application
structure (smiles),measurement,setting,value
"C[N+](C)(C)C[C@H](O)CC(=O)[O-] [LC, (3R)-3-hydroxy-4-trimethylazaniumylbutanoate]","Permeation rates, FMA","[1]; porcine ear skin dermatomed ≈800 μm, FMA pretreatment, donor 640 mg/mL",11.08 ± 2.05 mg/cm^2/h
same,"Permeation rates, Passive Diffusion","[1]; porcine ear skin dermatomed ≈800 μm, without FMA, donor 640 mg/mL",0.37 ± 0.04 mg/cm^2/h
same,Permeation rates of LC,[1]; donor concentration 650 mg/ml,11.08±2.05 mg/cm^2/h
same,Cumulative amount of LC,[1]; donor concentration 650 mg/ml,93.23±17.76 mg/cm^2
same,Permeation rates of LC,[1]; donor concentration 800 mg/ml,11.80±1.50 mg/cm^2/h
same,Cumulative amount of LC,[1]; donor concentration 800 mg/ml,97.20±12.60 mg/cm^2
same,"ER (enhancement ratio, FMA permeation rates/passive permeation rates)",[2]; human skin,59
same,"Permeation rates, FMA","[2]; human skin dermatomed ≈800 μm, FMA pretreatment, donor 640 mg/mL",10.65 ± 2.12 mg/cm^2/h
same,"Permeation rates, Passive Diffusion","[2]; human skin dermatomed ≈800 μm, without FMA, donor 640 mg/mL",0.18 ± 0.02 mg/cm^2/h
same,Permeation rate through rat skin relative to human skin,[3]; after FMA-puncture,3.7 times
same,Permeation rate through rat skin relative to human skin,[3]; passive diffusion,about 13.8 times
same,"ER (enhancement ratio, FMA permeation rates/passive permeation rates)",[3]; rat skin,16
same,"Permeation rates, FMA","[3]; rat skin full thickness, FMA pretreatment, donor 640 mg/mL",40.16 ± 3.97 mg/cm^2/h
same,"Permeation rates, Passive Diffusion","[3]; rat skin full thickness, without FMA, donor 640 mg/mL",2.49 ± 0.40 mg/cm^2/h
same,Apparent dose of LC,[6],200 mg/rat
same,The residual amount in patch,[6],550 mg/rat
same,The residual amount in patch,"Without FMA, CP980 gel patch 750 mg/rat, 6 h application",764 mg/rat
same,Difference between residual and initial content of patch,"rat, in vivo",no significant difference
same,Skin penetration speed on applicator pre-treated skin,[4],10 times faster
same,bioavailability,"[5]; iv, 200 mg",100%
same,AUC(0-inf),"[5]; iv, 200 mg, Intravenous 200 mg/rat",3680 µg·h/mL
same,Cmax,"[5]; po, 200 mg",40 ± 11 µg/mL
same,Tmax,"[5]; po, 200 mg",2 h
same,bioavailability,"[5]; po, 200 mg",8%
same,AUC(0-inf),"[5]; po, 200 mg, Oral 200 mg/rat",309 µg·h/mL
same,Cmax,"[5]; topical or ocular, 750 mg",530 ± 86 µg/mL
same,Tmax,"[5]; topical or ocular, 750 mg",4 h
same,bioavailability,"[5]; topical or ocular, 750 mg",22%
same,AUC(0-inf),"[5]; topical or ocular, 750 mg, FMA delivery 750 mg/rat",3020 µg·h/mL
same,Cmax after FMA delivery relative to oral administration,[5]; FMA 750 mg/rat vs oral 200 mg/rat,about 13 fold
same,AUC0-∞,[5]; FMA delivery 750 mg/rat,3049 µg·h/mL
same,Plasma concentration,[5]; at 3 min,3900 ± 420 µg/mL
same,Plasma concentration,[5]; at 2 h,270 ± 50 µg/mL
